The text below walks through data of PMC7115536 (European Journal of Medicinal Chemistry, 2011).

The conditions of data set [1]: cited from earlier work.
The next data set concerns HEL cell cultures. The note with it: human.
Data set [2] in a line: Stability studies at 37 °C in complete culture medium and CEM-SS cell extracts. The data set is classed as in vitro ADME. The note with it: for t1/2 cell extracts (half-life of decomposition): CEM-SS cell extracts, 0.1 mM.
The subject of a further data set is WT HBV. In kind it is cell-based.

Each structure is given as a SMILES string.

`Nc1ncnc2c1ncn2CCOCP(=O)(O)O` [PMEA, 9-(2-Phosphonomethoxyethyl)adenine, reference compound]: the “Stability in all tested media” value in data set [1] is given as “stable”. The same compound came in with a Minimum cytotoxic concentration in the data set with HEL cell cultures of more than 200 µM.

As to `C[C@H](Cn1cnc2c(N)ncnc21)OCP(=O)(O)O` [PMPA, (R)-9-(2-Phosphonomethoxypropyl)-adenine, reference compound], the “Stability in all tested media” value in data set [1] is listed as “stable”. This compound also had a Minimum cytotoxic concentration with HEL cell cultures of more than 200 µM.

As for `Nc1ncnc2c1ncn2CCOCP(=O)([O-])[S-].[Na+].[Na+]` (stereo not shown) [S-PMEA 3, {[2-(6-Amino-9H-purin-9-yl)ethoxy]methyl}phosphonothioic acid], in data set [2], the “t1/2 cell extracts (half-life of decomposition)” value was “Stable ^c”. In the data set with WT HBV, the “Potency relative to PMEA (more potent)” value is on record as 1.5–2.5 fold. The same compound had a Minimum cytotoxic concentration with HEL cell cultures of more than 200 µM.

On to `C[C@H](Cn1cnc2c(N)ncnc21)OCP(=O)([O-])[S-].[Na+].[Na+]` (stereo partly drawn) [S-PMPA 4, ({[(2R)-1-(6-Amino-9H-purin-9-yl)propan-2-yl]oxy}methyl)phosphonothioic acid], for which the “t1/2 cell extracts (half-life of decomposition)” value in data set [2] is “Stable ^c”. Further, in data set [2] (complete culture medium, 24 h), the “Degradation in complete culture medium after 24 h” value worked out at 20%. In the data set on HEL cell cultures, the Minimum cytotoxic concentration was more than 200 µM.
